Converted amounts (≈) assume the structure as drawn. The source made the active and inactive calls. The calls are words filed in the database; no cut-off is given here.
Test system: Candida albicans
Assay: Antimicrobial activity against Candida albicans DSM 1665 after 18 hrs by twofold serial dilution method
Assay type: functional
Conditions: not given

Compound	MIC
CC(C)=CCC/C(C)=C/CC/C(C)=C/CC/C(C)=C/CC/C(C)=C/CC/C(C)=C/CC/C(C)=C/CC/C(C)=C/CC1=CC(=O)C=CC1=O	inactive
CC(C)=CCC/C(C)=C/CC/C(C)=C/CC/C(C)=C/CC/C(C)=C/CC/C(C)=C/CC/C(C)=C/Cc1cc(O)ccc1O	inactive
Oc1ccc(O)cc1 [HYDROQUINONE]	inactive
CC(C)CCCC(C)CCCC(C)CCCC(C)CCCC(C)CCCC(C)CCCC(C)CCc1cc(O)ccc1O (stereo unspecified)	inactive
CC(C)CCCC(C)CCCC(C)CCc1cc(O)ccc1O (stereo unspecified)	inactive
CC(C)CCCC(C)CCCC(C)CCCC(C)CCCC(C)CCCC(C)CCCC(C)CCCC(C)CCc1cc(O)ccc1O (stereo unspecified)	inactive
CC(C)CCCC(C)CCCC(C)CCCC(C)CCCC(C)CCCC(C)CCc1cc(O)ccc1O (stereo unspecified)	inactive
CC(C)=CCC/C(C)=C/CC/C(C)=C/CC/C(C)=C/CC/C(C)=C/CC/C(C)=C/Cc1cc(O)ccc1O	inactive
CC(C)CCCC(C)CCc1cc(O)ccc1O (stereo unspecified)	inactive
CC(C)=CCC/C(C)=C/CC/C(C)=C/CC/C(C)=C/CC/C(C)=C/CC/C(C)=C/CC/C(C)=C/CC/C(C)=C/Cc1cc(O)ccc1O	inactive
CC(C)=CCC/C(C)=C/CC/C(C)=C/Cc1cc(O)ccc1O	inactive
CC1=CCC[C@H]2[C@](C)(Cc3cc(O)ccc3O)[C@@H](C)CC[C@]12C [AVAROL]	inactive
CC(C)=CCC/C(C)=C/CC/C(C)=C/CC/C(C)=C/CC/C(C)=C/CC/C(C)=C/CC/C(C)=C/CC1=CC(=O)C=CC1=O	inactive

Test system: Bacillus subtilis
Assay: Antimicrobial activity against Bacillus subtilis DSM 347 after 18 hrs by twofold serial dilution method
Assay type: functional
Conditions: not given

Compound	MIC
CC(C)=CCC/C(C)=C/CC/C(C)=C/CC/C(C)=C/CC/C(C)=C/CC/C(C)=C/CC/C(C)=C/CC/C(C)=C/CC1=CC(=O)C=CC1=O	inactive
CC(C)=CCC/C(C)=C/CC/C(C)=C/CC/C(C)=C/CC/C(C)=C/CC/C(C)=C/CC/C(C)=C/Cc1cc(O)ccc1O	inactive
CC(C)CCCC(C)CCCC(C)CCCC(C)CCCC(C)CCCC(C)CCCC(C)CCc1cc(O)ccc1O (stereo unspecified)	inactive
CC(C)CCCC(C)CCCC(C)CCCC(C)CCCC(C)CCCC(C)CCCC(C)CCCC(C)CCc1cc(O)ccc1O (stereo unspecified)	inactive
CC(C)CCCC(C)CCCC(C)CCCC(C)CCCC(C)CCCC(C)CCc1cc(O)ccc1O (stereo unspecified)	inactive
CC(C)=CCC/C(C)=C/CC/C(C)=C/CC/C(C)=C/CC/C(C)=C/CC/C(C)=C/Cc1cc(O)ccc1O	inactive
CC(C)=CCC/C(C)=C/CC/C(C)=C/CC/C(C)=C/CC/C(C)=C/CC/C(C)=C/CC/C(C)=C/CC/C(C)=C/Cc1cc(O)ccc1O	inactive
CC(C)=CCC/C(C)=C/CC/C(C)=C/CC/C(C)=C/CC/C(C)=C/CC/C(C)=C/CC/C(C)=C/CC1=CC(=O)C=CC1=O	inactive

Same assay, conditions: DSM 347, 18 h

Compound	MIC [µg/mL]
Oc1ccc(O)cc1 [HYDROQUINONE]	> 50
CC(C)CCCC(C)CCCC(C)CCc1cc(O)ccc1O (stereo unspecified)	> 50
CC(C)CCCC(C)CCc1cc(O)ccc1O (stereo unspecified)	6.25 (≈ 25 µM)
CC(C)=CCC/C(C)=C/CC/C(C)=C/Cc1cc(O)ccc1O	1.56 (≈ 4.96 µM)
CC1=CCC[C@H]2[C@](C)(Cc3cc(O)ccc3O)[C@@H](C)CC[C@]12C [AVAROL]	> 50

Test system: Artemia salina
Assay: Toxicity against Artemia salina after 24 hrs
Conditions: in vivo

Compound	LC50 [ppm]
CC(C)=CCC/C(C)=C/CC/C(C)=C/CC/C(C)=C/CC/C(C)=C/CC/C(C)=C/CC/C(C)=C/CC/C(C)=C/CC1=CC(=O)C=CC1=O	1.45
CC(C)=CCC/C(C)=C/CC/C(C)=C/CC/C(C)=C/CC/C(C)=C/CC/C(C)=C/CC/C(C)=C/Cc1cc(O)ccc1O	0.91
Oc1ccc(O)cc1 [HYDROQUINONE]	0.35
CC(C)CCCC(C)CCCC(C)CCCC(C)CCCC(C)CCCC(C)CCCC(C)CCc1cc(O)ccc1O (stereo unspecified)	> 10
CC(C)CCCC(C)CCCC(C)CCc1cc(O)ccc1O (stereo unspecified)	0.02
CC(C)CCCC(C)CCCC(C)CCCC(C)CCCC(C)CCCC(C)CCCC(C)CCCC(C)CCc1cc(O)ccc1O (stereo unspecified)	> 10
CC(C)CCCC(C)CCCC(C)CCCC(C)CCCC(C)CCCC(C)CCc1cc(O)ccc1O (stereo unspecified)	> 10
CC(C)=CCC/C(C)=C/CC/C(C)=C/CC/C(C)=C/CC/C(C)=C/CC/C(C)=C/Cc1cc(O)ccc1O	0.63
CC(C)CCCC(C)CCc1cc(O)ccc1O (stereo unspecified)	0.001
CC(C)=CCC/C(C)=C/CC/C(C)=C/CC/C(C)=C/CC/C(C)=C/CC/C(C)=C/CC/C(C)=C/CC/C(C)=C/Cc1cc(O)ccc1O	0.98
CC(C)=CCC/C(C)=C/CC/C(C)=C/Cc1cc(O)ccc1O	0.05
CC1=CCC[C@H]2[C@](C)(Cc3cc(O)ccc3O)[C@@H](C)CC[C@]12C [AVAROL]	0.18
CC(C)=CCC/C(C)=C/CC/C(C)=C/CC/C(C)=C/CC/C(C)=C/CC/C(C)=C/CC/C(C)=C/CC1=CC(=O)C=CC1=O	1.26

Test system: Micrococcus luteus
Assay: Antimicrobial activity against Micrococcus luteus DSM 348 after 18 hrs by twofold serial dilution method
Assay type: functional
Conditions: not given

Compound	MIC
CC(C)=CCC/C(C)=C/CC/C(C)=C/CC/C(C)=C/CC/C(C)=C/CC/C(C)=C/CC/C(C)=C/CC/C(C)=C/CC1=CC(=O)C=CC1=O	inactive
CC(C)=CCC/C(C)=C/CC/C(C)=C/CC/C(C)=C/CC/C(C)=C/CC/C(C)=C/CC/C(C)=C/Cc1cc(O)ccc1O	inactive
CC(C)CCCC(C)CCCC(C)CCCC(C)CCCC(C)CCCC(C)CCCC(C)CCc1cc(O)ccc1O (stereo unspecified)	inactive
CC(C)CCCC(C)CCCC(C)CCCC(C)CCCC(C)CCCC(C)CCCC(C)CCCC(C)CCc1cc(O)ccc1O (stereo unspecified)	inactive
CC(C)CCCC(C)CCCC(C)CCCC(C)CCCC(C)CCCC(C)CCc1cc(O)ccc1O (stereo unspecified)	inactive
CC(C)=CCC/C(C)=C/CC/C(C)=C/CC/C(C)=C/CC/C(C)=C/CC/C(C)=C/Cc1cc(O)ccc1O	inactive
CC(C)=CCC/C(C)=C/CC/C(C)=C/CC/C(C)=C/CC/C(C)=C/CC/C(C)=C/CC/C(C)=C/CC/C(C)=C/Cc1cc(O)ccc1O	inactive
CC(C)=CCC/C(C)=C/CC/C(C)=C/CC/C(C)=C/CC/C(C)=C/CC/C(C)=C/CC/C(C)=C/CC1=CC(=O)C=CC1=O	inactive

Same assay, conditions: DSM 348, 18 h

Compound	MIC [µg/mL]
Oc1ccc(O)cc1 [HYDROQUINONE]	> 50
CC(C)CCCC(C)CCCC(C)CCc1cc(O)ccc1O (stereo unspecified)	> 50
CC(C)CCCC(C)CCc1cc(O)ccc1O (stereo unspecified)	6.25 (≈ 25 µM)
CC(C)=CCC/C(C)=C/CC/C(C)=C/Cc1cc(O)ccc1O	12.5 (≈ 39.7 µM)
CC1=CCC[C@H]2[C@](C)(Cc3cc(O)ccc3O)[C@@H](C)CC[C@]12C [AVAROL]	> 50

Test system: Pseudomonas aeruginosa
Assay: Antimicrobial activity against Pseudomonas aeruginosa DSM 1117 after 18 hrs by twofold serial dilution method
Assay type: functional, organism-based
Conditions: not given

Compound	Activity
CC(C)=CCC/C(C)=C/CC/C(C)=C/CC/C(C)=C/CC/C(C)=C/CC/C(C)=C/CC/C(C)=C/CC/C(C)=C/CC1=CC(=O)C=CC1=O	inactive
CC(C)=CCC/C(C)=C/CC/C(C)=C/CC/C(C)=C/CC/C(C)=C/CC/C(C)=C/CC/C(C)=C/Cc1cc(O)ccc1O	inactive
Oc1ccc(O)cc1 [HYDROQUINONE]	inactive
CC(C)CCCC(C)CCCC(C)CCCC(C)CCCC(C)CCCC(C)CCCC(C)CCc1cc(O)ccc1O (stereo unspecified)	inactive
CC(C)CCCC(C)CCCC(C)CCc1cc(O)ccc1O (stereo unspecified)	inactive
CC(C)CCCC(C)CCCC(C)CCCC(C)CCCC(C)CCCC(C)CCCC(C)CCCC(C)CCc1cc(O)ccc1O (stereo unspecified)	inactive
CC(C)CCCC(C)CCCC(C)CCCC(C)CCCC(C)CCCC(C)CCc1cc(O)ccc1O (stereo unspecified)	inactive
CC(C)=CCC/C(C)=C/CC/C(C)=C/CC/C(C)=C/CC/C(C)=C/CC/C(C)=C/Cc1cc(O)ccc1O	inactive
CC(C)CCCC(C)CCc1cc(O)ccc1O (stereo unspecified)	inactive
CC(C)=CCC/C(C)=C/CC/C(C)=C/CC/C(C)=C/CC/C(C)=C/CC/C(C)=C/CC/C(C)=C/CC/C(C)=C/Cc1cc(O)ccc1O	inactive
CC(C)=CCC/C(C)=C/CC/C(C)=C/Cc1cc(O)ccc1O	inactive
CC1=CCC[C@H]2[C@](C)(Cc3cc(O)ccc3O)[C@@H](C)CC[C@]12C [AVAROL]	inactive
CC(C)=CCC/C(C)=C/CC/C(C)=C/CC/C(C)=C/CC/C(C)=C/CC/C(C)=C/CC/C(C)=C/CC1=CC(=O)C=CC1=O	inactive

Test system: Gambusia affinis
Assay: Toxicity against Gambusia affinis
Conditions: in vivo

Compound	LC50 [ppm]
CC(C)=CCC/C(C)=C/CC/C(C)=C/CC/C(C)=C/CC/C(C)=C/CC/C(C)=C/CC/C(C)=C/CC/C(C)=C/CC1=CC(=O)C=CC1=O	> 100
CC(C)=CCC/C(C)=C/CC/C(C)=C/CC/C(C)=C/CC/C(C)=C/CC/C(C)=C/CC/C(C)=C/Cc1cc(O)ccc1O	> 100
Oc1ccc(O)cc1 [HYDROQUINONE]	21.5
CC(C)CCCC(C)CCCC(C)CCCC(C)CCCC(C)CCCC(C)CCCC(C)CCc1cc(O)ccc1O (stereo unspecified)	> 100
CC(C)CCCC(C)CCCC(C)CCc1cc(O)ccc1O (stereo unspecified)	21.3
CC(C)CCCC(C)CCCC(C)CCCC(C)CCCC(C)CCCC(C)CCCC(C)CCCC(C)CCc1cc(O)ccc1O (stereo unspecified)	> 100
CC(C)CCCC(C)CCCC(C)CCCC(C)CCCC(C)CCCC(C)CCc1cc(O)ccc1O (stereo unspecified)	> 100
CC(C)=CCC/C(C)=C/CC/C(C)=C/CC/C(C)=C/CC/C(C)=C/CC/C(C)=C/Cc1cc(O)ccc1O	> 100
CC(C)CCCC(C)CCc1cc(O)ccc1O (stereo unspecified)	0.15
CC(C)=CCC/C(C)=C/CC/C(C)=C/CC/C(C)=C/CC/C(C)=C/CC/C(C)=C/CC/C(C)=C/CC/C(C)=C/Cc1cc(O)ccc1O	> 100
CC(C)=CCC/C(C)=C/CC/C(C)=C/Cc1cc(O)ccc1O	3.3
CC1=CCC[C@H]2[C@](C)(Cc3cc(O)ccc3O)[C@@H](C)CC[C@]12C [AVAROL]	4.6
CC(C)=CCC/C(C)=C/CC/C(C)=C/CC/C(C)=C/CC/C(C)=C/CC/C(C)=C/CC/C(C)=C/CC1=CC(=O)C=CC1=O	> 100

Test system: Escherichia coli
Assay: Antimicrobial activity against Escherichia coli DSM 1103 after 18 hrs by twofold serial dilution method
Assay type: functional, organism-based
Conditions: not given

Compound	Activity
CC(C)=CCC/C(C)=C/CC/C(C)=C/CC/C(C)=C/CC/C(C)=C/CC/C(C)=C/CC/C(C)=C/CC/C(C)=C/CC1=CC(=O)C=CC1=O	inactive
CC(C)=CCC/C(C)=C/CC/C(C)=C/CC/C(C)=C/CC/C(C)=C/CC/C(C)=C/CC/C(C)=C/Cc1cc(O)ccc1O	inactive
Oc1ccc(O)cc1 [HYDROQUINONE]	inactive
CC(C)CCCC(C)CCCC(C)CCCC(C)CCCC(C)CCCC(C)CCCC(C)CCc1cc(O)ccc1O (stereo unspecified)	inactive
CC(C)CCCC(C)CCCC(C)CCc1cc(O)ccc1O (stereo unspecified)	inactive
CC(C)CCCC(C)CCCC(C)CCCC(C)CCCC(C)CCCC(C)CCCC(C)CCCC(C)CCc1cc(O)ccc1O (stereo unspecified)	inactive
CC(C)CCCC(C)CCCC(C)CCCC(C)CCCC(C)CCCC(C)CCc1cc(O)ccc1O (stereo unspecified)	inactive
CC(C)=CCC/C(C)=C/CC/C(C)=C/CC/C(C)=C/CC/C(C)=C/CC/C(C)=C/Cc1cc(O)ccc1O	inactive
CC(C)CCCC(C)CCc1cc(O)ccc1O (stereo unspecified)	inactive
CC(C)=CCC/C(C)=C/CC/C(C)=C/CC/C(C)=C/CC/C(C)=C/CC/C(C)=C/CC/C(C)=C/CC/C(C)=C/Cc1cc(O)ccc1O	inactive
CC(C)=CCC/C(C)=C/CC/C(C)=C/Cc1cc(O)ccc1O	inactive
CC1=CCC[C@H]2[C@](C)(Cc3cc(O)ccc3O)[C@@H](C)CC[C@]12C [AVAROL]	inactive
CC(C)=CCC/C(C)=C/CC/C(C)=C/CC/C(C)=C/CC/C(C)=C/CC/C(C)=C/CC/C(C)=C/CC1=CC(=O)C=CC1=O	inactive

Source: ChEMBL document CHEMBL1148093, “Biological effects of prenylated hydroquinones: structure-activity relationship studies in antimicrobial, brine shrimp, and fish lethality assays” (J Nat Prod, 1994)
